Assay results: paper PMC12736008, “New Dimethylpyridine-3-Carboxamide Derivatives as MMP-13 Inhibitors with Anticancer Activity” (Molecules, 2025)

Assays:
HSA/Dansyl-L-Phe = molecular target: T1, HSA/Dansyl-L-Phe (Homo sapiens, UniProt P02768); assay: Marker displacement from HSA/Dansyl-L-Phe complex (Sudlow site II); type: binding; settings: room temperature
T1 construct: purchased Sigma-Aldrich
Excerpt: (§1) The human serum albumin (HSA) has two main drug-binding sites, known as Sudlow site I and Sudlow site II, located in subdomains IIA and IIIA of the albumin structure, respectively. […] In addition to these main sites, HSA has the capacity to bind ligands in other regions, including histidine residues, the N-terminus of the molecule, and metal binding sites. However, it is most common for drugs to bind to Sudlow I and Sudlow II. In order to study binding to a specific site in the protein, fluorescent markers, Dansyl-L-Gly and Dansyl-L-Phe, were used. The Dansyl-L-Gly interacts with Sudllow I, while the Dansyl-L-Phe prefers Sudllow II [41, 42]. The tested compounds were added in portions to the solution that contained the HSA/marker complex, and the fluorescence spectrum was recorded (Figure 11 and Figure 12). The percentage of compound exchange in the albumin pocket was calculated using Equation (6):(6) displacement % =F^0 −F /F^0 where F^0 is the maximum fluorescence intensity of HSA/Dansyl-L-Gly complex, and F is the maximum fluorescence intensity after a quencher addition. The calculated data were collected in Table 6. It was observed that only compound 3b displaces from the Dansyl-L-Gly binding site, as indicated by a decrease in fluorescence intensity with increasing concentration of this derivative, but only to approximately 8%. […] The band intensity increases slightly, which may be due to the dilution of the solution. The dilution of the sample leads to an increase in the average distance between molecules. This, in turn, results in a reduction in the number of collisions and reabsorptions, thereby enhancing the efficiency of fluorescence emission. Nevertheless, the binding site for Dansyl-L-Phe was displaced by all of the tested derivatives.
Solutions of Dansyl-L-Phe (Chem-Norm Biotech, Wuhan, China) and Dansyl-L-Gly (Sigma-Aldrich, Tokyo, Japan) were prepared by dissolving them separately in ethanol to a final concentration of 1·10^−3 mol/dm^3. The HSA solution was prepared in the same way as for titration binding measurements. Spectra were recorded at room temperature using a Cary Eclipse 500 spectrophotometer (Agilent, Santa Clara, CA, USA) with an excitation wavelength of 350 nm, and an emission range of 410–670 nm and the PMT voltages were (V) 700 and 650 for Dansyl-L-Gly and Dansyl-L-Phe, respectively. The complexes were prepared by mixing the HSA solution with the dansylated markers, and then adding the solution of the studied compounds from a ratio of 0 to 11.0 molar at the same increments, using the same protocol as in the spectroscopy studies.

A375 (melanoma) cells = assay: MTT assay, A375; type: cell-based, human; settings: for reduction in cancer cell viability / anticancer potential (A375): MTT, 24 h, 0.004 mM to 0.5 mM
Excerpt: (§2) As mentioned earlier, MMP-13 is overexpressed and functionally significant in various cancers, including melanoma and colorectal carcinoma. For instance, high MMP-13 levels have been correlated with metastasis and poor survival in melanoma patients. In colorectal cancer, elevated MMP-13 activity has been observed in tumors compared to normal mucosa, and its expression is associated with a worse prognosis. Based on computational studies, four out of the eleven designed compounds showing the most promising predicted activity against MMP-13 were selected for biological evaluation. For the MTT assay, NHDF cells were used as the healthy reference cell line, while A375 (melanoma) and HT-29 (colorectal adenocarcinoma cancer) cell lines were chosen as cancer models.
(§3) Experiments were conducted using two cancer cell lines and, as a control, a normal human dermal fibroblasts (NHDF; ATCC PCS-201-012). The A375 cell line (human melanoma, ATCC CRL-1619), and HT-29 cell line (human colorectal adenocarcinoma, ATCC HTB-38) were cultured in DMEM (Dulbecco’s Modified Eagle Medium, Institute of Immunology and Experimental Therapy (IITD), Wrocław, Poland) supplemented with 1% antibiotics (10 U/mL penicillin and 10 µg/mL streptomycin, Sigma-Aldrich, St Louis, MO, USA), 1% glutamine (Sigma-Aldrich, St Louis, MO, USA) and 10% fetal bovine serum (FBS, Gibco, Grand Island, NY, USA). For NHDF cultures, α-MEM (α-Minimum Essentials Medium, Institute of Immunology and Experimental Therapy (IITD), Poland) was used with the same supplement combination as for the cancer cell lines. All cells were maintained in a humidified incubator (INCO 105, Memmert GmbH, Schwabach, Germany) at 37 °C with 5% CO2 and 95% humidity. Cells were passaged routinely by trypsinization (twice a week). For the MTT (3-(4,5-simethylthiazol-2,5-diphenyltetrazolinum bromide), Sigma, St. Louis, MO, USA) assay, cells were used after 2–4 passages, when they reached approximately 80% confluence.
(§4) All tested compounds were dissolved in DMSO to obtain stock solutions with a final concentration of 50 mM (3a, 3b, 3e), 40 mM (3f, 3g, 3i, 3j), and 35 mM (3h, 3k). […] In the next step, 10 µL of each stock solution was added to 990 µL of supplemented medium.
(§5) The MTT assay was performed in 96-well plates, with a seeding density of 1 × 10^4 cells per well. All cell lines were incubated for 24 h in their respective media: α-MEM for (NHDF cells) and DMEM for (A375 and HT-29) cells. After incubation, the medium was removed and replaced with fresh medium containing the tested compounds at concentrations ranging from 0.004 mM to 0.5 mM. […] Absorbance was measured spectrophotometrically at a wavelength of 570 nm using a BioTek SYNERGY H1 microplate reader (Agilent, Santa Clara, CA, USA).

HSA/Dansyl-L-Gly = molecular target: T2, HSA/Dansyl-L-Gly (Homo sapiens, UniProt P02768); assay: Marker displacement from HSA/Dansyl-L-Gly complex (Sudlow site I); type: binding; settings: room temperature
T2 construct: purchased Sigma-Aldrich
Excerpt: as §1, with “The dilution of the sample leads to an increase in the average distance between molecules.” left out, “Nevertheless, the binding site for Dansyl-L-Phe was displaced by all of the tested derivatives.” left out
Solutions of Dansyl-L-Phe (Chem-Norm Biotech, Wuhan, China) and Dansyl-L-Gly (Sigma-Aldrich, Tokyo, Japan) were prepared by dissolving them separately in ethanol to a final concentration of 1·10^−3 mol/dm^3. […] Spectra were recorded at room temperature using a Cary Eclipse 500 spectrophotometer (Agilent, Santa Clara, CA, USA) with an excitation wavelength of 350 nm, and an emission range of 410–670 nm and the PMT voltages were (V) 700 and 650 for Dansyl-L-Gly and Dansyl-L-Phe, respectively. […]

[1] = tested on: HT-29 (colorectal adenocarcinoma) cells; assay: MTT assay, HT-29; type: cell-based, human; settings: for reduction in cancer cell viability / anticancer potential (HT-29): MTT, 24 h, 0.004 mM to 0.5 mM
Excerpt: as §2, §3, §4, §5

NHDF cells = assay: MTT assay, NHDF; type: cell-based, human; settings: 24 h, 0.004 mM to 0.5 mM
Excerpt: as §2, §3, §4, §5

T2 sequence (P02768 25-609): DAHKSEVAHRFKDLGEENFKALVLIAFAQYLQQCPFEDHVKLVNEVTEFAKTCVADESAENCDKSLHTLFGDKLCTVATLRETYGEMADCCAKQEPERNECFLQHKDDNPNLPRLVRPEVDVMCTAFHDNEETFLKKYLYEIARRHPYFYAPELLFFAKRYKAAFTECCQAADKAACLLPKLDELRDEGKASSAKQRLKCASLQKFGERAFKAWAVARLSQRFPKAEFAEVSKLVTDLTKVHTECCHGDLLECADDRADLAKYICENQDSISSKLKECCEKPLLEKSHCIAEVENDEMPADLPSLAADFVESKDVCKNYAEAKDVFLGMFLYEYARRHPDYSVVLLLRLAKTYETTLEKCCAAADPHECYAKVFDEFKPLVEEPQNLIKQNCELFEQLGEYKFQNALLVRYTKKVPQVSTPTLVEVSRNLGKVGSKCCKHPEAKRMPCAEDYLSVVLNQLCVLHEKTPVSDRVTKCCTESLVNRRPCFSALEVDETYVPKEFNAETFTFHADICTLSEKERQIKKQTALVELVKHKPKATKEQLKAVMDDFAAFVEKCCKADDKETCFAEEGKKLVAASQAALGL
T1 sequence (P02768 25-609): as above

| Compound | Marker Displacement Percentage HSA/Dansyl-L-Gly (HSA/Dansyl-L-Phe) | reduction in cancer cell viability / anticancer potential (A375) (A375 (melanoma) cells) | Marker Displacement Percentage HSA/Dansyl-L-Gly (HSA/Dansyl-L-Gly) | reduction in cancer cell viability / anticancer potential (HT-29) [1] | selectivity ratio A375:NHDF (A375 (melanoma) cells; at a concentration of 0.5 mM) | selectivity ratio HT-29:NHDF ([1]; at a concentration of 0.5 mM) | toxicity toward healthy NHDF cells (NHDF cells) |
| --- | --- | --- | --- | --- | --- | --- | --- |
| Cc1cc(C)c(C(=O)NCC(=O)NCc2ccccc2)c(S)n1 [Compound 3g, 4,6-dimethyl-N-[2-(benzylamino)-2-oxoethyl]-2-sulfanylpyridine-3-carboxamide] | 11.1% | only moderate anticancer potential | no quenching occurs at all | only moderate anticancer potential |  |  |  |
| Cc1cc(C)c(C(=O)NCC(=O)NCc2ccc(Oc3ccccc3)cc2)c(S)n1 [Compound 3b, 4,6-dimethyl-N-{2-[(4-phenoxybenzyl)amino]-2-oxoethyl}-2-sulfanylpyridine-3-carboxamide] | 35.2% |  |  |  | 0.56 | 0.43 | lowest toxicity toward healthy cells |
| Cc1cc(C)c(C(=O)NCC(=O)NCc2ccccc2Cl)c(S)n1 [Compound 3d, N-{2-[(2-chlorobenzyl)amino]-2-oxoethyl}-4,6-dimethyl-2-sulfanylpyridine-3-carboxamide] | 10.6% | strongest reduction in cancer cell viability | no quenching occurs at all | strongest reduction in cancer cell viability |  |  | highest toxicity toward healthy NHDF |
| Cc1cc(C)c(C(=O)NCC(=O)NCc2ccc(Cl)cc2)c(S)n1 [Compound 3c, N-{2-[(4-chlorobenzyl)amino]-2-oxoethyl}-4,6-dimethyl-2-sulfanylpyridine-3-carboxamide] | 18.5% | strongest reduction in cancer cell viability | no quenching occurs at all | strongest reduction in cancer cell viability |  |  | highest toxicity toward healthy NHDF |
